Experimental data from publication PMC5691139, “Structural and functional studies of SAV0551 from Staphylococcus aureus as a chaperone and glyoxalase III” (Bioscience Reports, 2017).

Tests used:
SAV0551 [1] = target: T1, SAV0551 (Staphylococcus aureus, UniProt P64312); assay: X-ray crystal structure of the complex, […] Å; assay type: binding; conditions: co-crystal with 50 mM glyoxylate, 30% PEG3350, 100 mM BisTris pH 6.5, 293 K; active site at Cys190; additional glyoxylate in aspartate-rich cleft between non-dimer chains
T1 construct: gene hchA; monomer ~32 kDa, dimer ~64 kDa
T1 sequence (P64312 1-292): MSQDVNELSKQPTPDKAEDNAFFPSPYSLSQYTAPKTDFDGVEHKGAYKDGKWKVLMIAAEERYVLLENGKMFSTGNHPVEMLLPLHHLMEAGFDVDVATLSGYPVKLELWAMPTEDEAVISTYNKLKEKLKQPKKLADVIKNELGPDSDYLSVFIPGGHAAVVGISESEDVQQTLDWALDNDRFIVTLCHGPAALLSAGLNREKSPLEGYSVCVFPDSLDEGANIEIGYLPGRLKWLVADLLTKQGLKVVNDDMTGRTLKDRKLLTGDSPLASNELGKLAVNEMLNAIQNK

SAV0551 [2] = target: T1, SAV0551; assay: 1D 1H NMR and DNPH absorbance ([…] nm) of remaining methylglyoxal; assay type: biochemical; conditions: no cofactor; 20 mM HEPES pH 7.5, 50 mM KCl, 2 mM DTT, 37°C; 60 mM (NMR) or 6 mM substrate; 50 or 10 µM enzyme
SAV0551 [3] = target: T1, SAV0551; assay: 1D 1H NMR; assay type: biochemical; conditions: 60 mM methylglyoxal, 50 µM enzyme, 20 mM HEPES pH 7.5, 50 mM KCl, 2 mM DTT, 37°C
[4] = target: the molecule itself; assay: SEC; size-exclusion chromatography in solution; conditions not told for this result (the purification used Superdex 75 10/300 GL in 50 mM Tris pH 7.5, 0.15 M NaCl)

## O=CC(=O)O [glyoxylate]
SAV0551 [1]
  X-ray crystal structure of the complex, 3.01 Å: 5XR3 for SAV0551 with glyoxylate

## CC(=O)C=O [methylglyoxal]
SAV0551 [2]
  1D 1H NMR and DNPH absorbance (550 nm) of remaining methylglyoxal: methylglyoxal can be used as a substrate for SAV0551 to produce D-lactate

## C[C@@H](O)C(=O)O [D-lactate]
SAV0551 [3]
  1D 1H NMR: new peaks that correspond to the D-lactate produced by SAV0551

B1: SAV0551 from Staphylococcus aureus Mu50 (natural protein, UniProt P64312 1-292, looked up)
chain: MSQDVNELSKQPTPDKAEDNAFFPSPYSLSQYTAPKTDFDGVEHKGAYKDGKWKVLMIAAEERYVLLENGKMFSTGNHPVEMLLPLHHLMEAGFDVDVATLSGYPVKLELWAMPTEDEAVISTYNKLKEKLKQPKKLADVIKNELGPDSDYLSVFIPGGHAAVVGISESEDVQQTLDWALDNDRFIVTLCHGPAALLSAGLNREKSPLEGYSVCVFPDSLDEGANIEIGYLPGRLKWLVADLLTKQGLKVVNDDMTGRTLKDRKLLTGDSPLASNELGKLAVNEMLNAIQNK
notes: SAV0551, Hsp-type DJ-1/ThiJ/PfpI superfamily protein (Hsp31 homologue, glyoxalase III) of Staphylococcus aureus Mu50 (ATCC 700699); predicted ORF amplified from genomic DNA into pET-21a(+) NdeI/XhoI; monomer ~32 kDa; also called wild-type SAV0551; native SAV0551; source: E. coli BL21(DE3), purified (Ni-NTA, Superdex 75)
[4]
  stoichiometry N: 2
